Laboratory results published in ChEMBL document CHEMBL1201862, “PubChem BioAssay data set” (2004).
The source made the active and inactive calls.

How the values were obtained:
[1] = target: T1, Adenosylmethionine-8-amino-7-oxononanoate aminotransferase (Mycobacterium tuberculosis, UniProt P9WQ81); experiment: Mycobacterium tuberculosis BioA enzyme inhibitor Measured in Biochemical System Using Plate Reader - 2163-02_Inhibitor_Dose_CherryPick_Activity.; type: functional, Mycobacterium tuberculosis UT205
T1 sequence (P9WQ81 whole entry): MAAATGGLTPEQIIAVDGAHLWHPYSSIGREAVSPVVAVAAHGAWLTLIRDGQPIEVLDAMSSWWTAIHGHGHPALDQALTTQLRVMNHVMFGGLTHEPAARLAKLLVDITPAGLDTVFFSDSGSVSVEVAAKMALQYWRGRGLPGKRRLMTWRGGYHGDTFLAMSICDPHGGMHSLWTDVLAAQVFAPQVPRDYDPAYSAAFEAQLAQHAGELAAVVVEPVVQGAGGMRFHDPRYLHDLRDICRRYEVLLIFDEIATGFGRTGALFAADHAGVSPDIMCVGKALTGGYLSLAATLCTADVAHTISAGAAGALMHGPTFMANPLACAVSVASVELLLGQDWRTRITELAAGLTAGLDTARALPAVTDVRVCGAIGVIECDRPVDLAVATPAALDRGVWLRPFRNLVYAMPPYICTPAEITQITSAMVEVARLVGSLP

[2] = target: Beta-galactosidase (Escherichia coli, UniProt Q8VNN2); experiment: PubChem AID 485352; type: functional
[3] = target: T2, Type-1 angiotensin II receptor (Homo sapiens, UniProt P30556); experiment: antagonism of angiotensin II type 1 receptor – cell-based, uHTS hits, selectivity assay for APJ receptor antagonist project, dose response (AID 463214); type: functional;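 also: antagonist potency against angiotensin II stimulated AT1 response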
T2 sequence (P30556 whole entry): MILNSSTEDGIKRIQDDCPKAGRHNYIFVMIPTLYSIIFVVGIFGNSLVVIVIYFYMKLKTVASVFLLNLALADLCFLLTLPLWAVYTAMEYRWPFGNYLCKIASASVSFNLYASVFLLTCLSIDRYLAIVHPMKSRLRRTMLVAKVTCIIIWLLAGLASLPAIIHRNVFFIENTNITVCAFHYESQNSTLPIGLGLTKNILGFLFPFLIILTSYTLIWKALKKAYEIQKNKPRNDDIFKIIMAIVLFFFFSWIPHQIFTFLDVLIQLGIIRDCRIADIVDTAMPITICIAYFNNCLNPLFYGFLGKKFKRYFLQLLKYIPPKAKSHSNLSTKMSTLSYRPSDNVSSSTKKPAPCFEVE

[4] = target: T3, Nuclear receptor subfamily 0 group B member 1 (Homo sapiens, UniProt P51843); type: functional, cell-based;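 also: HEK293T cells transfected with SF-1 and DAX-1 plus StAR promoter luciferase reporter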
T3 sequence (P51843 whole entry): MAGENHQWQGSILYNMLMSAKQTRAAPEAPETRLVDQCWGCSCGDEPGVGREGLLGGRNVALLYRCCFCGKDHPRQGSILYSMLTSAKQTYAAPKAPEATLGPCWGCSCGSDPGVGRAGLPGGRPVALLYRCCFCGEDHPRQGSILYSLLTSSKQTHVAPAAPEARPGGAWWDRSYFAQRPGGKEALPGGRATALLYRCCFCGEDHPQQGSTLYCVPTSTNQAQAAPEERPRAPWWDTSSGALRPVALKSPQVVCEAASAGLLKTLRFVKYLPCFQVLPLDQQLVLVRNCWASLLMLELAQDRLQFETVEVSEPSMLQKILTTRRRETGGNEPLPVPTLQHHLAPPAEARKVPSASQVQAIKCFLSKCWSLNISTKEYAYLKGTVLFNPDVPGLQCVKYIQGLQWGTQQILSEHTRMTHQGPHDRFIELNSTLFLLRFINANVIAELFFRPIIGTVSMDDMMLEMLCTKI

[5] = cells; type: functional, cell-based
[6] = target: T4, Small ubiquitin-related modifier 1 (Homo sapiens, UniProt P63165); experiment: SUMO1 protein interaction blockers, potency – biochemical, fluorescence polarization, uHTS hits, dose response (AID 624382); type: functional; conditions: read-out: IC50_Mean
[7] = target: T4, Small ubiquitin-related modifier 1; experiment: SUMO1 protein-protein binding blockers, potency – biochemical, FRET, dose response (AID 624383); type: functional; conditions: read-out: IC50_Mean
[8] = system: Streptococcus sp. 'group A'; experiment: Streptococcus pyogenes SK(-)GAS viability under kanamycin – luminescence, BacTiterGlo, confirmation, counter-screen for streptokinase expression inhibitor project, dose response (AID 1900); type: functional, organism-based
[9] = target: T5, Streptokinase A (Streptococcus pyogenes serotype M1, UniProt P10520); experiment: viability-normalized secreted streptokinase activity reduction – plasminogen activation absorbance, OD405, dose response (AID 1914); type: functional, Streptococcus pyogenes M1 GAS;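 also: secreted streptokinase activity via plasminogen activation per viability signal from cell pellet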
T5 sequence (P10520 whole entry): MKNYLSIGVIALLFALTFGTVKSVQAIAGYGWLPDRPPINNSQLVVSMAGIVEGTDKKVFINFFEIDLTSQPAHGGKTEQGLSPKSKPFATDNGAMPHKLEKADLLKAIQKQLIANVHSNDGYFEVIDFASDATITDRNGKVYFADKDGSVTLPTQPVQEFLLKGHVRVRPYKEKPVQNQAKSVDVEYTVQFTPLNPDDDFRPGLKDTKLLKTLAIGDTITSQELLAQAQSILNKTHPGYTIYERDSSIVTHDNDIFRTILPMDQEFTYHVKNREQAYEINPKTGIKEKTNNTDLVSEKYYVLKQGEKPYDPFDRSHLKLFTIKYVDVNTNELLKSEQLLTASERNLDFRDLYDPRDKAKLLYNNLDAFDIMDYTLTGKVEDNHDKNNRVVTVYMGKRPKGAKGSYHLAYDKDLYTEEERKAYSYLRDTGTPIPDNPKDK

[10] = system: Streptococcus; experiment: GAS UMAA2166 growth inhibition – luminescence, BacTiterGlo, counter-screen for streptokinase expression inhibitor project, dose response (AID 1915); type: functional, organism-based;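 also: potency for reduction of bacterial viability or growth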
[11] = target: 5-hydroxytryptamine receptor 2A (Mus musculus, UniProt P35363); type: functional, cell-based;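 also: CHO-K1 cells with tagged receptor and beta-arrestin; agonist potency measured as compound-induced activation of the receptor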
[12] = target: Mu-type opioid receptor (Homo sapiens, UniProt P35372); type: functional, cell-based;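 also: U2OS cells with beta-arrestin recruitment to OPRM1 by beta-gal complementation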
[13] = target: T6, Long-chain-fatty-acid--AMP ligase FadD28 (Mycobacterium tuberculosis, UniProt P9WQ59); experiment: Fluorescence polarization aasay to screen for inhibitors that compete for the binding of FadD28 to a bisubstrate Measured in Biochemical System Using Plate Reader - 2147-01_Inhibitor_Dose_CherryPick_Activity.; type: functional, Mycobacterium tuberculosis H37Rv
T6 sequence (P9WQ59 whole entry): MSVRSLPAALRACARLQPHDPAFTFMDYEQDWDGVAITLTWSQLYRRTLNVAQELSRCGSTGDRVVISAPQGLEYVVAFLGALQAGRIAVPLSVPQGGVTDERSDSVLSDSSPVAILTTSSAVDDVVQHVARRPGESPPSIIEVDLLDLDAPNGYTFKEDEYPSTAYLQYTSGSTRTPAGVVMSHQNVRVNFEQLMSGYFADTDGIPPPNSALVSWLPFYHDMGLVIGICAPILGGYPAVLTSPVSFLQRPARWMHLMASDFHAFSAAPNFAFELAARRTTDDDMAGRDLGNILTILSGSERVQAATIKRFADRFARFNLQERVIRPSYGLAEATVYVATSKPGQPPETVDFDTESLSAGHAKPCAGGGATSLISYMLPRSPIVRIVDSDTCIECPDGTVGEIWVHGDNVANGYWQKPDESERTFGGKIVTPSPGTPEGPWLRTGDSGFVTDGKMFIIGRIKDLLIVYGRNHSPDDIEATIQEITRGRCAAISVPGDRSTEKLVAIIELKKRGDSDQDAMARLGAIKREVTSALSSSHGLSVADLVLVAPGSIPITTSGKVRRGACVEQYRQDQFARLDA

[14] = target: Beta-lactamase (Salmonella choleraesuis (strain SC-B67), UniProt Q5J463); experiment: Epi-absorbance-based counterscreen for selective VIM-2 inhibitors: dose response biochemical high throughput screening assay to identify inhibitors of TEM-1 serine-beta-lactamase.
[15] = target: T7, Beta-lactamase (Pseudomonas aeruginosa, UniProt Q79MP6); experiment: inhibition of IMP-1 beta-lactamase activity – biochemical, epi-absorbance, selectivity assay for VIM-2 inhibitor project, dose response (AID 1920)
[16] = target: T7, Beta-lactamase; experiment: […] counterscreen for selective VIM-2 inhibitors: dose response biochemical high throughput screening assay to identify inhibitors of IMP-1 metallo-beta-lactamase.
[17] = alpha-synuclein stem-loop luciferase translation blockers – H4 neuroglioma cells, luminescence, confirmation (AID 1988); type: functional, cell-based
[18] = luciferase reporter signal suppression in cells – H4 neuroglioma cells, luminescence, dose response (AID 1990); type: functional, cell-based
[19] = Luminescence Cell-Based Dose Response HTS to Identify Inhibitors of 5'UTR Stem-Loop Driven Prion Protein mRNA Translation in H4 Neuroglioblastoma Cells. [Related pubchem assays: 1827 (Project Summary), 1813 (Primary HTS)]; type: functional
[20] = target: T8, Heat shock factor protein 1 (Mus musculus, UniProt P38532); experiment: enhancement of HSF1-driven luciferase signal – cell-based, NIH3T3, luminescence, dose retest, confirmation (AID 435004); type: functional;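 also: stress induced by proteasome inhibitor MG132 added 30 min after compound; luciferase reporter driven by HSF1 response element in NIH3T3 cells; actives raise luminescence as potentiators of the MG132 stress response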
T8 sequence (P38532 whole entry): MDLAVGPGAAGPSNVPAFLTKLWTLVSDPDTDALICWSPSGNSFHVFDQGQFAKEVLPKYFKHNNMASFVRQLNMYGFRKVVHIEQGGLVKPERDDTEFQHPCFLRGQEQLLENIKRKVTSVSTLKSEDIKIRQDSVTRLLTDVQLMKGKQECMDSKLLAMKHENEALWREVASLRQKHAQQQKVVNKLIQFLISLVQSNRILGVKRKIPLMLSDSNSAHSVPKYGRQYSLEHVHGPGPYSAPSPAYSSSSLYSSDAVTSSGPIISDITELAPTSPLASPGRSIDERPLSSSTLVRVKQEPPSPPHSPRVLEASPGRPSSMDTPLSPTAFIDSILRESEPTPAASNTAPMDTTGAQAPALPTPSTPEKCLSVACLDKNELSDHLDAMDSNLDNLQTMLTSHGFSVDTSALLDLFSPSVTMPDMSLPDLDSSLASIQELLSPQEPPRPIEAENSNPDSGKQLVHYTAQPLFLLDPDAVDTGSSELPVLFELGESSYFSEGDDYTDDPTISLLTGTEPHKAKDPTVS

[21] = target: Large T antigen (Simian virus 40, UniProt P03070); type: functional, Betapolyomavirus macacae;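 also: Confirmatory-stage PubChem screen for compounds that inhibit SV40 T antigen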
[22] = target: SWI/SNF-related matrix-associated actin-dependent regulator of chromatin subfamily A member 2 (Homo sapiens, UniProt P51531); experiment: Luminescence-based cell-based high throughput dose response assay to identify activators of the function of SWI/SNF related, matrix associated, actin dependent regulator of chromatin, subfamily a, member 2 (SMARCA2, BRM).; type: functional
[23] = target: Photoreceptor-specific nuclear receptor (Homo sapiens, UniProt Q9Y5X4); type: functional, cell-based;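 also: CHO-S cells with Gal4-NCOR and VP16-NR2E3 two-hybrid luciferase reporter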
[24] = Counterscreen for activators of the function of SWI/SNF related, matrix associated, actin dependent regulator of chromatin, subfamily a, member 2 (SMARCA2, BRM): Luminescence-based cell-based high throughput dose response assay to identify non-selective compounds using the VP16 reporter assay.; type: functional

Chain of 5-hydroxytryptamine receptor 2A (P35363 whole entry): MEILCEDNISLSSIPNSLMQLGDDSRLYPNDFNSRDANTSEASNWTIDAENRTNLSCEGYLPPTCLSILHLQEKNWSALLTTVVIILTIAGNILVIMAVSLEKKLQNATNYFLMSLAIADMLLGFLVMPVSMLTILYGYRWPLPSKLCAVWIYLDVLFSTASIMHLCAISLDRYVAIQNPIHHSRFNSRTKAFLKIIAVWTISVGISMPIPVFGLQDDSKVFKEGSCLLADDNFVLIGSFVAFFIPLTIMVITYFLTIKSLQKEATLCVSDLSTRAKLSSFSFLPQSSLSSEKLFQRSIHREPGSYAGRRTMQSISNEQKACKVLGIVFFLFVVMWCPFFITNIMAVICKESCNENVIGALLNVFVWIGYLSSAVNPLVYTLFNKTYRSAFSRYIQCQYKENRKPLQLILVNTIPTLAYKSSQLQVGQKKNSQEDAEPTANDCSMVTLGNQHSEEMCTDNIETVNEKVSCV
Chain of Beta-lactamase (Salmonella choleraesuis (strain SC-B67), UniProt Q5J463) (Q5J463 whole entry): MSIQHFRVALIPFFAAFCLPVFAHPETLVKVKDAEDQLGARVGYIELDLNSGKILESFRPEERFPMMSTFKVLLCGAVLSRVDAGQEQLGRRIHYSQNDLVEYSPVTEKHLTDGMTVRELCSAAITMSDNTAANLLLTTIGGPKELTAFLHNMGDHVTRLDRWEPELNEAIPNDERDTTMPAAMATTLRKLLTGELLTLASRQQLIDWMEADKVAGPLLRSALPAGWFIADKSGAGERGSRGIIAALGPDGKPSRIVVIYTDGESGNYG
Chain of Mu-type opioid receptor (P35372 whole entry): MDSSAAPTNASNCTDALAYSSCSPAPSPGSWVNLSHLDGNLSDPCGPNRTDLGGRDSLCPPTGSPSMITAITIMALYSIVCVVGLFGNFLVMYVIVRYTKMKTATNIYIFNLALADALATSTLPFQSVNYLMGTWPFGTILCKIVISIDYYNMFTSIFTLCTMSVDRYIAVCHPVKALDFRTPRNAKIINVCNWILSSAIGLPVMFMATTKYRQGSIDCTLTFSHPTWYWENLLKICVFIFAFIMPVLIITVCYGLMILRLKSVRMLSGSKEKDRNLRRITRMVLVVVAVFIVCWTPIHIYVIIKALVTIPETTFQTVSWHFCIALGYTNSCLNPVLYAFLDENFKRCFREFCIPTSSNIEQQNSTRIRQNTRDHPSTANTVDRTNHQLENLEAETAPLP
T7 sequence (Q79MP6 whole entry): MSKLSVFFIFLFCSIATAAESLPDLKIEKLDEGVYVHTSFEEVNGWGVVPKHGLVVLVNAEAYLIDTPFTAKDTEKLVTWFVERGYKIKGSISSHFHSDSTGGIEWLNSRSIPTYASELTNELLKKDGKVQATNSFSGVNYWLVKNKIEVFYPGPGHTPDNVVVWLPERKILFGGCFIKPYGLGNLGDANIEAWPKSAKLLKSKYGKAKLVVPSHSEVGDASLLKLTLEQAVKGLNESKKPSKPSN
Chain of Beta-galactosidase (Q8VNN2 whole entry): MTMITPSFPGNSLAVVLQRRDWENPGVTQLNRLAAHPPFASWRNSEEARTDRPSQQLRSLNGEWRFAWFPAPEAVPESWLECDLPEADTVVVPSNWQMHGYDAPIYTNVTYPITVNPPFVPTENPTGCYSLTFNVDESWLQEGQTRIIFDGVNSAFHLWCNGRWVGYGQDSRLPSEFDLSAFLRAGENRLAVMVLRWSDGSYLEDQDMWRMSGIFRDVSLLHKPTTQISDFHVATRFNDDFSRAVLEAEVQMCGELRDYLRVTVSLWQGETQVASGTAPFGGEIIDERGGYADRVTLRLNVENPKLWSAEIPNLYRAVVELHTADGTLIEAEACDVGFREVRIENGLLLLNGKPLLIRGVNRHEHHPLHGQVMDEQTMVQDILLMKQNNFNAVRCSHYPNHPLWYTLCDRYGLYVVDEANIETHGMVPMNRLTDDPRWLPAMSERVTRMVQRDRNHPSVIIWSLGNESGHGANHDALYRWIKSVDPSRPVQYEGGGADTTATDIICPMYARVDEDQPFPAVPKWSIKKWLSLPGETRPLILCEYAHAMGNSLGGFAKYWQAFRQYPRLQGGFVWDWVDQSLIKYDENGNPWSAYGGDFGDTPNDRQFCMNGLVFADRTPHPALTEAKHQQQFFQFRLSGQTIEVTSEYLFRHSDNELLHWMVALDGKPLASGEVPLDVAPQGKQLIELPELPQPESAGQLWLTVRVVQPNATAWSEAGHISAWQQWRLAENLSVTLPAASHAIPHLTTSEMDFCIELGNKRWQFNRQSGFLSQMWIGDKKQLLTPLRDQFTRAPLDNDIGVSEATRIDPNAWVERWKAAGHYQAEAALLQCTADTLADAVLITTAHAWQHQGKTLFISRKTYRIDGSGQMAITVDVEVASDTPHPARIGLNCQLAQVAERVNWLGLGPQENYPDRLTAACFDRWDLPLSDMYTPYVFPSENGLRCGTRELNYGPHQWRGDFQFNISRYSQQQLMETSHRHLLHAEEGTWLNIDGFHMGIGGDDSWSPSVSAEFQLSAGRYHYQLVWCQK
T4 sequence (P63165 whole entry): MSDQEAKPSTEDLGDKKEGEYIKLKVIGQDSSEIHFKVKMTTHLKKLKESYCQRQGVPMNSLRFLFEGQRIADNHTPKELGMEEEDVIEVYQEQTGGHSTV
Chain of Photoreceptor-specific nuclear receptor (Q9Y5X4 whole entry, the tested form may be a part): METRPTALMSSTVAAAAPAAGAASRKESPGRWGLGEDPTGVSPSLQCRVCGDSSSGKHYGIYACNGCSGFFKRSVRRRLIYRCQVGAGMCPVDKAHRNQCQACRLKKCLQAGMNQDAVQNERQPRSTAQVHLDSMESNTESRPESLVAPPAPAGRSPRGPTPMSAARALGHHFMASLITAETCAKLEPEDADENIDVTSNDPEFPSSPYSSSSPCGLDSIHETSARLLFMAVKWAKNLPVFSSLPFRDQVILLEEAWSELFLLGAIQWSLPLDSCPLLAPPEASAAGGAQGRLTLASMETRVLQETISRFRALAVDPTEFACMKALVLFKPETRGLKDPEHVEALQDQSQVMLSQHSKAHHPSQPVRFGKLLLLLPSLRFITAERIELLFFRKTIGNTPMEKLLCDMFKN
Chain of Large T antigen (P03070 whole entry): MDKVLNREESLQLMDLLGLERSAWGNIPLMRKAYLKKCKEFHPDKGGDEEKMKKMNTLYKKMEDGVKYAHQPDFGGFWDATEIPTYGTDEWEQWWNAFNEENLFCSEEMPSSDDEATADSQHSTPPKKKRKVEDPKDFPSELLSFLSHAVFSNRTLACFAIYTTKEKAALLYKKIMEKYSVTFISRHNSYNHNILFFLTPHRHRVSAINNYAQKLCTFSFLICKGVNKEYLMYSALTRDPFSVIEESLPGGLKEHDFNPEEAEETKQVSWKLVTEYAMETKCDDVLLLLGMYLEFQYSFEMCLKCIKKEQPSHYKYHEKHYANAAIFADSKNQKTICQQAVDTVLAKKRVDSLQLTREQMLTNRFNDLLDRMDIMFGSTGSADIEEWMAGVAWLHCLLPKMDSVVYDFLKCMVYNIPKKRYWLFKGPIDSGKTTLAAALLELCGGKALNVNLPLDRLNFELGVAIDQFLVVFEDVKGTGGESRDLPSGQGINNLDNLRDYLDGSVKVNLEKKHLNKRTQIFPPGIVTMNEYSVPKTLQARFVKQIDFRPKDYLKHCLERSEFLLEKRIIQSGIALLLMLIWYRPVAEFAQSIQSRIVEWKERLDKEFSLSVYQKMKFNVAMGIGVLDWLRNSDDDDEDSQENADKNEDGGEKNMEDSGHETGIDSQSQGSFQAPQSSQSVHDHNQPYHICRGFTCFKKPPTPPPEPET

COc1ccc2c(c1)c(C(=O)CN1CCC3(CC1)OCCO3)c(C)n2Cc1ccccc1
AC50 [1]: 3.41 µM (active)

Cn1nnc(NC(=S)NC(=O)c2cccc3ccccc23)n1
EC50 [2]: > 40 µM (inactive)
IC50 [3]: > 40 µM (not active)

O=C(Nc1ccccc1Cl)NC1CCCCCCC1
IC50 [4]: > 67.5 µM (inactive)
IC50 [5]: > 67.5 µM (inactive)

COc1ccc(Cl)cc1Nc1nc(-c2sc(NC(=O)CC(C)C)nc2C)cs1
IC50 [6]: > 66.6 µM (inactive)
IC50 [7]: 14.8 µM (active)

Cn1c(O)c(N=Nc2nc(-c3ccccc3)cs2)c2ccccc21
EC50 [2]: > 40 µM (inactive)
EC50 [8]: 3.21 µM (active)
EC50 [9]: 7.09 µM (active)
EC50 [10]: > 150 µM (not active)
IC50 [3]: > 40 µM (not active)

Cc1ccc(CN2CCN(c3ncccn3)CC2)c(C)c1
EC50 [11]: 0.337 µM (active)
EC50 [12]: 92.4 µM (inactive)

CCCC(=O)C1=C(c2ccccc2)C(C#N)(C#N)C(C#N)=C1N
AC50 [13]: 32 µM (inactive)

Cc1cc(OCC(=O)N2CCC[C@@H]2C(=O)O)c2c(C)c(C)c(=O)oc2c1
IC50 [14]: > 59.6 µM (inactive)
IC50 [15]: > 59.6 µM (inactive)
IC50 [16]: > 59.6 µM (inactive)

Cc1c(OCC(=O)N2CCC[C@@H]2C(=O)O)ccc2c3c(c(=O)oc12)CCC3
IC50 [14]: > 59.6 µM (inactive)
IC50 [15]: > 59.6 µM (inactive)
IC50 [16]: > 59.6 µM (inactive)

CC1(C)C(C=C(Cl)Cl)C1C(=O)N1CCN(Cc2ccccc2)CC1 (configuration not stated)
EC50 [11]: 1.21 µM (active)
EC50 [12]: 92.5 µM (inactive)

O=C(CCN1CCN(c2ccccc2F)CC1)Nc1ccc2c(c1)OCO2
EC50 [11]: 76.1 µM (inactive)
EC50 [12]: 92.5 µM (inactive)
EC50 [17]: > 120 µM (not active)
EC50 [18]: > 120 µM (not active)
EC50 [19]: > 120 µM (not active)

CCSC1(SCC)N=C(N)C2(C#N)C(c3ccc(OC)c(OC)c3OC)C12C#N (configuration not stated)
EC50 [2]: > 40 µM (inactive)
EC50 [20]: 6.63 µM (active)
IC50 [3]: 27.5 µM (not active)
IC50 [21]: > 100 µM (active)

O=C(CN1C(=O)C2CC=CCC2C1=O)OCC(=O)c1ccc(Cl)c([N+](=O)[O-])c1 (configuration not stated)
EC50 [2]: > 40 µM (inactive)
IC50 [3]: 16.3 µM (active)

COc1cccc(N2CCN(c3nc(O)cc(-c4ccccc4C)n3)CC2)c1
EC50 [22]: > 91.2 µM (inactive)
IC50 [23]: 0.0942 µM (active)
EC50 [24]: > 91.2 µM (inactive)

Cc1ccc(NC(=O)CSc2nc(=O)n(CCCN3CCOCC3)c3c2CCCC3)cc1F
AC50 [1]: 3.18 µM (active)

COc1ccccc1NC(=O)N[C@@H]1CC[C@H](CCn2cc(-c3cccnc3)nn2)O[C@H]1CO
AC50 [1]: 2.59 µM (active)

O=C(O)Cn1cccc1C(=O)c1ccccc1
IC50 [14]: > 59.6 µM (inactive)
IC50 [15]: > 59.6 µM (inactive)
IC50 [16]: > 59.6 µM (inactive)
